Tests used:
[1] = tested on: chronic constriction of the sciatic nerve; details: intrathecal, given 1 day after chronic constriction of the sciatic nerve, only under daily repeated dosing; cited from earlier work
[2] = tested on: DMM-induced OA knee joints; assay: DMM surgery-induced OA model, histology and microCT; format: in vivo, mouse; details: for morphology and structure of articular cartilage / cartilage degeneration: intra-articular injection once every two weeks starting immediately after DMM, 2 and 4 months
From the text: To induce mouse OA that mimics chronic OA in human patients, male mice at 3 months of age were subjected to DMM surgery at right knees and sham surgery at left knees. Briefly, in DMM surgery, the joint capsule was opened immediately after anesthesia and the medial meniscotibial ligament was cut to destabilize the meniscus without damaging other tissues. In Sham surgery, the joint capsule was opened in the same fashion but without any further damage. […] For DMM surgical OA model, the first injection was performed immediately after surgery. Injections were then repeated every 2 weeks for 2 or 4 months. In total, there are 4 injections for the 2 months group and 8 injections for 4 months group. For load-induced OA model, injections (i.a.) were performed immediately and at 48 hours after loading. There are 2 injections in total for each mouse in this model. After euthanasia, mouse knee joints were harvested and fixed in 4% paraformaldehyde overnight followed by decalcification in 0.5 M EDTA (pH 7.4) for 4 weeks prior to paraffin embedding. A serial of 6 μm-thick sagittal sections (about 100) were cut across the entire medial compartment of the joint until ACL junction. […] The final measurement is an average of these three sections. We defined uncalcified cartilage as the area from articular surface to the tide mark and calcified cartilage as the area from tide mark to cement line. The method to measure Mankin Score was described previously(37). Briefly, two sections within every consecutive six sections in the entire section set for each knee were stained with Safranin 0/Fast green and scored by two blinded observers. Each knee received a single score representing the maximal score of its sections. Synovitis score grading was carried out in 6-μm paraffin sections of sagittal mouse knee sections stained with H&E. The following basic morphological parameters of synovitis were included: (i) hyperplasia/enlargement of synovial lining layer, (ii) degree of inflammatory infiltration and (iii) activation of resident cells/synovial stroma, including fibroblasts, endothelial cells, histiocytes, macrophages, and multinucleated giant cells. All parameters are graded from 0 (absent), 1 (slight), 2 (moderate) to 3 (strong positive). The distal femur of mouse knee joints was scanned at a 6-μm isotropic voxel size with a microCT 35 scanner (Scanco Medical AG, Brüttisellen, Switzerland). All images were smoothened by a Gaussian filter (sigma=1.2, support=2.0). Measurement of SBP thickness was described previously(39). […] The region of interest (ROI) was circled and the average SBP thickness within ROI is calculated by average grey value/255*max scale bar value. […]

[3] = tested on: DMM-induced OA knee joints; assay: DMM surgery-induced OA model, von Frey pain analysis; format: in vivo, mouse; details: DMM knees; from 2 weeks post-surgery throughout experimental period
From the text: To induce mouse OA that mimics chronic OA in human patients, male mice at 3 months of age were subjected to DMM surgery at right knees and sham surgery at left knees. Briefly, in DMM surgery, the joint capsule was opened immediately after anesthesia and the medial meniscotibial ligament was cut to destabilize the meniscus without damaging other tissues. In Sham surgery, the joint capsule was opened in the same fashion but without any further damage. […] For DMM surgical OA model, the first injection was performed immediately after surgery. Injections were then repeated every 2 weeks for 2 or 4 months. In total, there are 4 injections for the 2 months group and 8 injections for 4 months group. For load-induced OA model, injections (i.a.) were performed immediately and at 48 hours after loading. There are 2 injections in total for each mouse in this model. The knee joint pain after DMM surgery or loading injury was evaluated in mice weekly before and after surgery using von Frey filaments as described previously(38). An individual mouse was placed on a wire-mesh platform (Excellent Technology Co.) under a 4×3×7 cm cage to restrict their move. […] The threshold force required to elicit withdrawal of the paw (median 50% withdrawal) was determined five times on each hind paw with sequential measurements separated by at least 5 minutes.

[4] = tested on: load-induced OA knee joints; assay: Single load-induced PTOA model, histology and TUNEL; format: in vivo, mouse; details: 6 N or 9 N loading, two weeks
From the text: To induce mouse OA that is noninvasive and mimics post-traumatic OA in human patients, male mice (2 months old) were subjected mechanic loading at the right knees and sham loading at left knees. Briefly, under anesthesia, the right tibiae were positioned with the knee downward in deep flexion between custom-made cups and subjected to axial compressive loads with a peak force of 6 or 9 Newtons (N) with a 0.5 N preload force to maintain the limb in position between loading cycles. Cyclic loads were applied for 0.34 s with a rise and fall time each of 0.17 s and a baseline hold time of 10 s between cycles for 60 cycles. The uninjured left knees were used as controls. […] For DMM surgical OA model, the first injection was performed immediately after surgery. Injections were then repeated every 2 weeks for 2 or 4 months. In total, there are 4 injections for the 2 months group and 8 injections for 4 months group. For load-induced OA model, injections (i.a.) were performed immediately and at 48 hours after loading. There are 2 injections in total for each mouse in this model. […] Cartilage injury length was measured in Safranin 0/Fast green stained paraffin sections. […] According to these histological changes, it is possible to identify the demarcation between the normal and injured cartilage tissue, and the length of the cartilage lesion range was measured. […]

[5] = Toxicity in mice after 2-month serial intra-articular injections; format: in vivo, mouse
From the text: After 2 months treatment for DMM mice, some major organs (kidney, liver, lung, heart, and spleen) and blood were collected. Tissue sections were stained with hematoxylin and eosin (H&E) to assess the effects of different treatment on mouse organ morphology.

[6] = tested on: load-induced OA knee joints; assay: Single load-induced PTOA model, von Frey pain analysis; format: in vivo, mouse; details: 6 N or 9 N loading
From the text: To induce mouse OA that is noninvasive and mimics post-traumatic OA in human patients, male mice (2 months old) were subjected mechanic loading at the right knees and sham loading at left knees. Briefly, under anesthesia, the right tibiae were positioned with the knee downward in deep flexion between custom-made cups and subjected to axial compressive loads with a peak force of 6 or 9 Newtons (N) with a 0.5 N preload force to maintain the limb in position between loading cycles. Cyclic loads were applied for 0.34 s with a rise and fall time each of 0.17 s and a baseline hold time of 10 s between cycles for 60 cycles. The uninjured left knees were used as controls. […] For DMM surgical OA model, the first injection was performed immediately after surgery. Injections were then repeated every 2 weeks for 2 or 4 months. In total, there are 4 injections for the 2 months group and 8 injections for 4 months group. For load-induced OA model, injections (i.a.) were performed immediately and at 48 hours after loading. […] The knee joint pain after DMM surgery or loading injury was evaluated in mice weekly before and after surgery using von Frey filaments as described previously(38). […] The threshold force required to elicit withdrawal of the paw (median 50% withdrawal) was determined five times on each hind paw with sequential measurements separated by at least 5 minutes.

SMILES | behavioral sensitivity [1] | increase of SBP thickness at femoral medial site compared to sham joints ([2]; 4 months after DMM surgery) | increase in synovitis score compared with sham knees ([2]; DMM knees, 2-month treatment) | morphology and structure of articular cartilage / cartilage degeneration [2] | morphology and structure of articular cartilage / cartilage degeneration ([2]; listed as free sPLA2i) | mechanical threshold / OA pain (von Frey) [3] | length of cartilage injury [4] | synovitis scores [4] | blood parameters (hematology, renal and liver function, serum electrolytes) ([5]; 2-month serial injections) | histopathology of liver, spleen, kidney, lung, heart and knee joint ([5]; two months after serial intra-articular injections) | pain threshold / OA pain (von Frey) [6]
CCCCC/C=C\C/C=C\C/C=C\C/C=C\CCCC(=O)C(F)(F)F [AACOCF3] | reduces behavioral sensitivity |  |  |  |  |  |  |  |  |  | 
CCCCCCCCCCCCCCCCSCC(COP(=O)([O-])OCC[N+](C)(C)C)NC(=O)CCCCCCCCCCCCCCC (centres unmarked) [sPLA2i, 1-Palmitylthio-2-palmitoylamido-1,2-dideoxy-sn-glycero-3-phosphorylcholine] |  | 1.31 fold | more than 10 fold | did not have a protective effect | not observed | did not alter the OA pain | significant damage areas | significant synovitis | no significant difference | did not observe any histopathological abnormalities | experienced OA pain

Reference: patent US20230285292A1, “COMPOSITIONS AND METHODS OF USING A PLA2-RESPONSIVE DRUG DELIVERY SYSTEM” (THE TRUSTEES OF THE UNIVERSITY OF PENNSYLVANIA, priority 2020, published 2023)
